Measured values as given in patent publication US20040242538A1, “Method to improve complexation efficacy and produce high-energy cylodextrincomplexes” (priority 2001, published 2004).
In brackets after ≈: the same amount, converted by molar mass.

Experiments:
physchem = settings: pH 7.4, aqueous buffer, thermodynamic from solid
Description: To investigate this special property of the complexes, 50 mg of complex containing the basic drug was dissolved in 25 ml of phosphate buffer 0.1 M, pH 7.4. 100 μl samples were taken from this solution and measured for 1-96 hours depending on the complex being investigated. […] Solid drug particles with and without cyclodextrin were also weighed and placed in the buffer to show the difference in solubility between samples of the drug alone, drug and cyclodextrin in a standard mixture, and drug in complex with cyclodextrin.
The solid complexes were heated in a vacuum oven for 4 days at 88° C. and 0.13×10^2 Pa. Each complex contained about 0.2 equivalents of acetic acid. A 50 mg sample of each complex was dissolved in 25 ml of the buffer. […] 12 mg of solid Basic drug A particles were also dissolved in 50 ml of the buffer with or without 38 mg of HPβCD to show the effect of complexing.

[1] = Stability of the drug in complexes during heating in the vacuum oven (HPLC); assay type: physicochemical; settings: complexes heated at 90° C. for several days
Description: All solutions were lyophilized, then the obtained complex was sieved through a 300 μm sieve and heated in a vacuum oven at 60-90° C. for several days, depending on the drug being investigated.
The amount of drug per gram sample was determined on a high performance liquid chromatographic (HPLC) component system, consisting of ConstaMetric 3200 solvent delivery system operated at 1.5 ml/min, a SpectroMonitor 3200 UV/VIS variable-wavelength detector, a Merck-Hitachi AS-2000A autosampler, Merck Hitachi D-2500 Chromato-Integrator and a Phenomex ODS 5 μm (150×4.6 mm) column.
Selected Basic drug A complexes were analysed after heating in the vacuum oven at 90° C. for several days.

Compound: Cc1ccc(N2CCN(C)CC2)c2c1CC[C@@H](NC(=O)c1ccc(N3CCOCC3)cc1)C2 [Basic drug A, (R)-N-[5-methyl-8-(4-methylpiperazin-1-yl)-1,2,3,4-tetrahydro-2-naphthyl]-4-morpholinobenzamide]
- solubility (physchem): 34 µg/mL (≈ 75.8 µM)
- stability during heating in the vacuum oven [1]: stable during heating in the vacuum oven
